Measured values as given in patent US20240299349A1, “TREATMENT OR PREVENTION OF LEUKAEMIA” (VESTLANDETS INNOVASJONSSELSKAP AS, priority 2019, published 2024).

System: not given
Assay: not given
Conditions: not given
`COc1c(C)c(OC)c([N+](=O)[O-])c(-c2ccccc2)c1O` [Compound 7, 3,5-dimethoxy-4-methyl-6-nitrobiphenyl-2-ol] gave a melting point of 102.7 °C.

System: HL60 cell line
Assay: WST-1 cell viability assay, 24 hours treatment, HL60
Format: cell-based, human
Conditions: HL60, 24 hours, 0.001-100 μM, WST-1
Procedure: (§1) The cell lines HL60 and MOLM-13 were treated with the various compounds for 24 hours. The cell viability assay WST-1 was used to determine the cytotoxic effect and to generate the dose-response curves and IC50 values.
(§2) The two human cell lines HL60 and MOLM-13 reflect the aggressive blood cancer acute myeloid leukaemia (AML). These cell lines (obtained from the American Type Culture Collection, ATCC) were cultured in RPMI 1640, 2 mM L-Glutamine, 50 UmL^−1 penicillin/streptomycin (Sigma Aldrich) and 10% fetal bovine serum (Biowest) and incubated in humidified atmosphere at a temperature of 37° C. under 5% CO2. The cells (2×10^5 cells×mL^−1) were treated with various concentrations (0.001 μM→100 μM) of the compounds for a period of 24 hours. Metabolic cell activity (i.e. cell viability) was measured using the WST-1 cell proliferation agent (Roche) and read on a […] plate reader (Infinite 200 Pro, Tecan). Selected cell samples were analysed after nuclear staining with Hoechst to determine apoptotic nuclear fragmentation.
In the case of `COc1c(C)c(OC)c([N+](=O)[O-])c(-c2ccccc2)c1O` [Compound 7, 3,5-dimethoxy-4-methyl-6-nitrobiphenyl-2-ol], the cytotoxicity / %-viability is reported as “minor decrease in %-viability”.
With `COc1c(C)c(OC)c2[nH]c3ccccc3c2c1O` [Compound 11, 1,3-dimethoxy-2-methyl-9H-carbazol-4-ol] the cytotoxicity / %-viability was “major cytotoxicity”.
In the case of `COc1c(C)c(OC)c2c(c1OC(C)=O)c1ccccc1n2C(C)=O` [Compound 10, 9-acetyl-1,3-dimethoxy-2-methyl-9H-carbazol-4-yl acetate], the cytotoxicity / %-viability is reported as “did not show any influence on the cytotoxicity”.
With `COc1c(C)c(OC)c(O)c(-c2ccccc2)c1N` [Compound 8, 6-amino-3,5-dimethoxy-4-methyl-[1,1′-biphenyl]-2-ol] the cytotoxicity / %-viability was “substantial drop in %-viability”.
For `COc1c(C)c(OC)c(OC(C)=O)c(-c2ccccc2)c1NC(C)=O` [Compound 9, 6-acetamido-3,5-dimethoxy-4-methyl-(1,1′-biphenyl)-2-yl acetate], the cytotoxicity / %-viability was “weaker cytotoxicity”.
In the case of `COC1=C(C)C(C)(O)c2[nH]c3ccccc3c2C1=O` (stereo not drawn) [Compound 13, 1-hydroxy-3-methoxy-1,2-dimethyl-1,9-dihydro-4H-carbazol-4-one, reference compound], the cytotoxicity / %-viability is reported as “not to exhibit cytotoxicity”.

Same assay, conditions: HL60, 24 hours, FIG. 1
For `COC1=C(C)C(=O)c2[nH]c3ccccc3c2C1=O` [Compound 12, 3-methoxy-2-methyl-1-carbazole-1,4 (9H)-dione], the “cell survival dose/response curve in the mitochondria metabolism assay (WST-1)” value (“cell survival dose/response curve” for short) was “more limited dose/response curves”.
In the case of `COc1cccc(-c2c(N)c(OC)c(C)c(OC)c2O)c1` [Compound 8a, 6-amino-3,3′,5-trimethoxy-4-methyl-[1,1′-biphenyl]-2-ol], the “cell survival dose/response curve” value is reported as “rapid decrease in cell survival”.
In the case of `COc1c(C)c(OC)c([N+](=O)[O-])c(-c2ccccc2)c1O` [Compound 7, 3,5-dimethoxy-4-methyl-6-nitrobiphenyl-2-ol], the “cell survival dose/response curve” value is reported as “more limited dose/response curves”.
For `COc1c(C)c(OC)c2[nH]c3ccccc3c2c1O` [Compound 11, 1,3-dimethoxy-2-methyl-9H-carbazol-4-ol], the “cell survival dose/response curve” value was “rapid decrease in cell survival”.
In the case of `COc1cccc(-c2c(NC(C)=O)c(OC)c(C)c(OC)c2OC(C)=O)c1` [Compound 9a, 6-acetamido-3,3′,5-trimethoxy-4-methyl-(1,1′-biphenyl)-2-yl acetate], the “cell survival dose/response curve” value is reported as “more limited dose/response curves”.
In the case of `COc1cccc(-c2c(O)c(OC)c(C)c(OC)c2[N+](=O)[O-])c1` [Compound 7a, 3,3′,5-trimethoxy-4-methyl-6-nitro-[1,1′-biphenyl]-2-ol], the “cell survival dose/response curve” value is reported as “rapid decrease in cell survival”.
In the case of `COc1c(C)c(OC)c2c(c1OC(C)=O)c1ccccc1n2C(C)=O` [Compound 10, 9-acetyl-1,3-dimethoxy-2-methyl-9H-carbazol-4-yl acetate], the “cell survival dose/response curve” value is reported as “rapid decrease in cell survival”.
In the case of `COc1c(C)c(OC)c(O)c(-c2ccccc2)c1N` [Compound 8, 6-amino-3,5-dimethoxy-4-methyl-[1,1′-biphenyl]-2-ol], the “cell survival dose/response curve” value is reported as “rapid decrease in cell survival”.
For `COc1c(C)c(OC)c(OC(C)=O)c(-c2ccccc2)c1NC(C)=O` [Compound 9, 6-acetamido-3,5-dimethoxy-4-methyl-(1,1′-biphenyl)-2-yl acetate], the “cell survival dose/response curve” value was “more limited dose/response curves”.
In the case of `COC1=C(C)C(C)(O)c2[nH]c3ccccc3c2C1=O` (stereo not drawn) [Compound 13, 1-hydroxy-3-methoxy-1,2-dimethyl-1,9-dihydro-4H-carbazol-4-one, reference compound], the “cell survival dose/response curve” value is reported as “more limited dose/response curves”.

System: MOLM-13 cell line
Assay: WST-1 cell viability assay, 24 hours treatment, MOLM-13
Format: cell-based, human
Conditions: MOLM-13, 24 hours, 0.001-100 μM, WST-1
Procedure: as §1, §2
In the case of `COc1c(C)c(OC)c([N+](=O)[O-])c(-c2ccccc2)c1O` [Compound 7, 3,5-dimethoxy-4-methyl-6-nitrobiphenyl-2-ol], the cytotoxicity / %-viability is reported as “minor decrease in %-viability”.
In the case of `COc1c(C)c(OC)c2[nH]c3ccccc3c2c1O` [Compound 11, 1,3-dimethoxy-2-methyl-9H-carbazol-4-ol], the cytotoxicity / %-viability is reported as “major cytotoxicity”.
For `COc1c(C)c(OC)c2c(c1OC(C)=O)c1ccccc1n2C(C)=O` [Compound 10, 9-acetyl-1,3-dimethoxy-2-methyl-9H-carbazol-4-yl acetate], the cytotoxicity / %-viability was “did not show any influence on the cytotoxicity”.
With `COc1c(C)c(OC)c(O)c(-c2ccccc2)c1N` [Compound 8, 6-amino-3,5-dimethoxy-4-methyl-[1,1′-biphenyl]-2-ol] the cytotoxicity / %-viability was “substantial drop in %-viability”.
For `COc1c(C)c(OC)c(OC(C)=O)c(-c2ccccc2)c1NC(C)=O` [Compound 9, 6-acetamido-3,5-dimethoxy-4-methyl-(1,1′-biphenyl)-2-yl acetate], the cytotoxicity / %-viability was “weaker cytotoxicity”.
In the case of `COC1=C(C)C(C)(O)c2[nH]c3ccccc3c2C1=O` (stereo not drawn) [Compound 13, 1-hydroxy-3-methoxy-1,2-dimethyl-1,9-dihydro-4H-carbazol-4-one, reference compound], the cytotoxicity / %-viability is reported as “not to exhibit cytotoxicity”.

Same assay, conditions: MOLM-13, 24 hours, FIG. 1
With `COC1=C(C)C(=O)c2[nH]c3ccccc3c2C1=O` [Compound 12, 3-methoxy-2-methyl-1-carbazole-1,4 (9H)-dione] the “cell survival dose/response curve” value was “more limited dose/response curves”.
With `COc1cccc(-c2c(N)c(OC)c(C)c(OC)c2O)c1` [Compound 8a, 6-amino-3,3′,5-trimethoxy-4-methyl-[1,1′-biphenyl]-2-ol] the “cell survival dose/response curve” value was “rapid decrease in cell survival”.
In the case of `COc1c(C)c(OC)c([N+](=O)[O-])c(-c2ccccc2)c1O` [Compound 7, 3,5-dimethoxy-4-methyl-6-nitrobiphenyl-2-ol], the “cell survival dose/response curve” value is reported as “more limited dose/response curves”.
For `COc1c(C)c(OC)c2[nH]c3ccccc3c2c1O` [Compound 11, 1,3-dimethoxy-2-methyl-9H-carbazol-4-ol], the “cell survival dose/response curve” value was “rapid decrease in cell survival”.
In the case of `COc1cccc(-c2c(NC(C)=O)c(OC)c(C)c(OC)c2OC(C)=O)c1` [Compound 9a, 6-acetamido-3,3′,5-trimethoxy-4-methyl-(1,1′-biphenyl)-2-yl acetate], the “cell survival dose/response curve” value is reported as “more limited dose/response curves”.
In the case of `COc1cccc(-c2c(O)c(OC)c(C)c(OC)c2[N+](=O)[O-])c1` [Compound 7a, 3,3′,5-trimethoxy-4-methyl-6-nitro-[1,1′-biphenyl]-2-ol], the “cell survival dose/response curve” value is reported as “rapid decrease in cell survival”.
In the case of `COc1c(C)c(OC)c2c(c1OC(C)=O)c1ccccc1n2C(C)=O` [Compound 10, 9-acetyl-1,3-dimethoxy-2-methyl-9H-carbazol-4-yl acetate], the “cell survival dose/response curve” value is reported as “rapid decrease in cell survival”.
In the case of `COc1c(C)c(OC)c(O)c(-c2ccccc2)c1N` [Compound 8, 6-amino-3,5-dimethoxy-4-methyl-[1,1′-biphenyl]-2-ol], the “cell survival dose/response curve” value is reported as “rapid decrease in cell survival”.
For `COc1c(C)c(OC)c(OC(C)=O)c(-c2ccccc2)c1NC(C)=O` [Compound 9, 6-acetamido-3,5-dimethoxy-4-methyl-(1,1′-biphenyl)-2-yl acetate], the “cell survival dose/response curve” value was “more limited dose/response curves”.
With `COC1=C(C)C(C)(O)c2[nH]c3ccccc3c2C1=O` (stereo not drawn) [Compound 13, 1-hydroxy-3-methoxy-1,2-dimethyl-1,9-dihydro-4H-carbazol-4-one, reference compound] the “cell survival dose/response curve” value was “more limited dose/response curves”.
